Values quoted from earlier work in patent US20050148556A1, “Compositions and methods for increasing HDL and HDL-2b levels” (priority 2003, published 2005).

Settings: in vivo

CN(C)C(=N)N=C(N)N [Metformin, metformin]
HDL cholesterol levels after metformin therapy: either do not change or increase slightly
